# PubChem BioAssay (NCI)
#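 GI50 = concentration required for 50% inhibition of growth. TGI is the concentration that stops growth completely.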
# Tests used:
# Experiment in all cases: DTP human tumour cell line panel, 384-well format
# [1] = system: A549 NSCLC
# [2] = system: BT-549 breast
# [3] = system: CAKI-1 renal
# [4] = system: COLO 205 colon
# [5] = system: HL-60(TB) leukemia
# [6] = system: HOP-62 NSCLC
# [7] = system: HOP-92 NSCLC
# [8] = system: HS 578T breast
# [9] = system: HT29 colon
# [10] = system: KM12 colon
# [11] = system: M14 melanoma
# [12] = system: MALME-3M melanoma
# [13] = system: MCF7 breast
# [14] = system: MDA-MB-231 breast
# [15] = system: NCI-H226 lung
# [16] = system: NCI-H23 lung
# [17] = system: NCI-H322M lung
# [18] = system: OVCAR-8 ovarian
# [19] = system: RPMI-8226 leukemia
# [20] = system: RXF 393 renal
# [21] = system: SF-268 CNS
# [22] = system: SF-295 CNS
# [23] = system: SF-539 CNS
# [24] = system: SK-MEL-28 melanoma
# [25] = system: SNB-75 CNS
# [26] = system: SR leukemia
# [27] = system: SW-620 colon
compound,measurement,setting,value
Cc1cc(Nc2ncc(F)c(N[C@H]3[C@@H](C(N)=O)[C@@H]4C=C[C@H]3C4)n2)ccc1N1CCN(C)CC1,GI50,[1],20.1 nM
same,TGI,[1],3250 nM
same,GI50,[2],14.6 nM
same,TGI,[2],51.5 nM
same,GI50,[3],< 10 nM
same,TGI,[3],1200 nM
same,GI50,[4],< 10 nM
same,TGI,[4],< 10 nM
same,GI50,[5],< 10 nM
same,TGI,[5],1030 nM
same,GI50,[6],25 nM
same,TGI,[6],237 nM
same,GI50,[7],15.6 nM
same,TGI,[7],184 nM
same,GI50,[8],12.6 nM
same,TGI,[8],95.6 nM
same,GI50,[9],44.4 nM
same,TGI,[9],1140 nM
same,GI50,[10],173 nM
same,TGI,[10],1500 nM
same,GI50,[11],< 10 nM
same,TGI,[11],2100 nM
same,GI50,[12],< 10 nM
same,TGI,[12],1340 nM
same,GI50,[13],436 nM
same,TGI,[13],2140 nM
same,GI50,[14],26 nM
same,TGI,[14],1570 nM
same,GI50,[15],25.7 nM
same,TGI,[15],661 nM
same,GI50,[16],35.9 nM
same,TGI,[16],1160 nM
same,GI50,[17],766 nM
same,TGI,[17],2260 nM
same,GI50,[18],88 nM
same,TGI,[18],385 nM
same,GI50,[19],< 10 nM
same,TGI,[19],< 10 nM
same,GI50,[20],30.5 nM
same,TGI,[20],294 nM
same,GI50,[21],73.5 nM
same,TGI,[21],866 nM
same,GI50,[22],21.8 nM
same,TGI,[22],276 nM
same,GI50,[23],24.8 nM
same,TGI,[23],138 nM
same,GI50,[24],1210 nM
same,TGI,[24],2550 nM
same,GI50,[25],15.2 nM
same,TGI,[25],119 nM
same,GI50,[26],< 10 nM
same,TGI,[26],< 10 nM
same,GI50,[27],26.2 nM
same,TGI,[27],1500 nM
